{"source": "patent US12295936B2", "about": "“Immunomodulating urea azalides” (Zoetis Services LLC, priority 2020, dated 2025)", "test_system": "BRD pathogens, M. haemolytica and P. multocida", "assay": "MIC screening panel of BRD pathogens (antibacterial / non-antibacterial)", "conditions": "read-out: antibacterial / non-antibacterial (MIC for the BRD pathogens)", "data": [{"smiles": "CC[C@H]1OC(=O)[C@H](C)[C@@H](O[C@H]2C[C@@](C)(OC)[C@](O)(CN=[N+]=[N-])[C@H](C)O2)[C@H](C)[C@@H](O[C@@H]2O[C@H](C)C[C@H](N(C)C(=O)Nc3ccccc3)[C@H]2O)[C@](C)(O)C[C@@H](C)CN[C@H](C)[C@@H](O)[C@]1(C)O", "note": "[Example F-1, 1-((2S,3R,4S,6R)-2-(((2R,3S,4R,5R,8R,10R,11R,12S,13S,14R)-13-(((2R,4R,5S,6S)-5-(azidomethyl)-5-hydroxy-4-methoxy-4,6-dimethyltetrahydro-2H-pyran-2-yl)oxy)-2-ethyl-3,4,10-trihydroxy-3,5,8,10,12,14-hexamethyl-15-oxo-1-oxa-6-azacyclopentadecan-11-yl)oxy)-3-hydroxy-6-methyltetrahydro-2H-pyran-4-yl)-1-methyl-3-phenylurea]", "values": [{"measurement": "MIC", "result": "> 64", "unit": "µg/mL"}]}, {"smiles": "CCCNC[C@]1(O)[C@H](C)O[C@@H](O[C@H]2[C@H](C)[C@@H](O[C@@H]3O[C@H](C)C[C@H](N(C)C(=O)N(C)c4ncc(C5CC5)cn4)[C@H]3O)[C@](C)(O)C[C@@H](C)CN[C@H](C)[C@@H](O)[C@](C)(O)[C@@H](CC)OC(=O)[C@@H]2C)C[C@@]1(C)OC", "note": "[Example H-52, 1-(5-cyclopropylpyrimidin-2-yl)-3-((2S,3R,4S,6R)-2-(((2R,3S,4R,5R,8R,10R,11R,12S,13S,14R)-2-ethyl-3,4,10-trihydroxy-13-(((2R,4R,5S,6S)-5-hydroxy-4-methoxy-4,6-dimethyl-5-((propylamino)methyl)tetrahydro-2H-pyran-2-yl)oxy)-3,5,8,10,12,14-hexamethyl-15-oxo-1-oxa-6-azacyclopentadecan-11-yl)oxy)-3-hydroxy-6-methyltetrahydro-2H-pyran-4-yl)-1,3-dimethylurea]", "values": [{"measurement": "MIC", "result": "> 64", "unit": "µg/mL"}]}, {"smiles": "CCCNC[C@]1(O)[C@H](C)O[C@@H](O[C@H]2[C@H](C)[C@@H](O[C@@H]3O[C@H](C)C[C@H](N(C)C(=O)Nc4cccc(C#N)c4)[C@H]3O)[C@](C)(O)C[C@@H](C)CN[C@H](C)[C@@H](O)[C@](C)(O)[C@@H](CC)OC(=O)[C@@H]2C)C[C@@]1(C)OC", "note": "[Example H-79, 3-(3-cyanophenyl)-1-((2S,3R,4S,6R)-2-(((2R,3S,4R,5R,8R,10R,11R,12S,13S,14R)-2-ethyl-3,4,10-trihydroxy-13-(((2R,4R,5S,6S)-5-hydroxy-4-methoxy-4,6-dimethyl-5-((propylamino)methyl)tetrahydro-2H-pyran-2-yl)oxy)-3,5,8,10,12,14-hexamethyl-15-oxo-1-oxa-6-azacyclopentadecan-11-yl)oxy)-3-hydroxy-6-methyltetrahydro-2H-pyran-4-yl)-1-methylurea]", "values": [{"measurement": "MIC", "result": "> 64", "unit": "µg/mL"}]}, {"smiles": "CC[C@H]1OC(=O)[C@H](C)[C@@H](O)[C@H](C)[C@@H](O[C@@H]2O[C@H](C)C[C@H](N(C)C(=O)Nc3cc(C)n(C)n3)[C@H]2O)[C@](C)(O)C[C@@H](C)CN[C@H](C)[C@@H](O)[C@]1(C)O", "note": "[Example A-7, 3-(1,5-dimethyl-1H-pyrazol-3-yl)-1-((2S,3R,4S,6R)-2-(((2R,3S,4R,5R,8R,10R,11R,12S,13S,14R)-2-ethyl-3,4,10,13-tetrahydroxy-3,5,8,10,12,14-hexamethyl-15-oxo-1-oxa-6-azacyclopentadecan-11-yl)oxy)-3-hydroxy-6-methyltetrahydro-2H-pyran-4-yl)-1-methylurea]", "values": [{"measurement": "MIC", "result": "> 64", "unit": "µg/mL"}]}, {"smiles": "CCCN(C[C@]1(O)[C@H](C)O[C@@H](O[C@H]2[C@H](C)[C@@H](O[C@@H]3O[C@H](C)C[C@H](N(C)C(=O)Nc4ccc(C(F)(F)F)cc4)[C@H]3O)[C@](C)(O)C[C@@H](C)CN[C@H](C)[C@@H](O)[C@](C)(O)[C@@H](CC)OC(=O)[C@@H]2C)C[C@@]1(C)OC)C(=O)Nc1ccc(C(F)(F)F)cc1", "note": "[Example H-12, 1-((2S,3R,4S,6R)-2-(((2R,3S,4R,5R,8R,10R,11R,12S,13S,14R)-2-ethyl-3,4,10-trihydroxy-13-(((2R,4R,5S,6S)-5-hydroxy-4-methoxy-4,6-dimethyl-5-((1-propyl-3-(4-(trifluoromethyl)phenyl)ureido)methyl)tetrahydro-2H-pyran-2-yl)oxy)-3,5,8,10,12,14-hexamethyl-15-oxo-1-oxa-6-azacyclopentadecan-11-yl)oxy)-3-hydroxy-6-methyltetrahydro-2H-pyran-4-yl)-1-methyl-3-(4-(trifluoromethyl)phenyl)urea]", "values": [{"measurement": "MIC", "result": "> 64", "unit": "µg/mL"}]}, {"smiles": "CC[C@H]1OC(=O)[C@H](C)[C@@H](O)[C@H](C)[C@@H](O[C@@H]2O[C@H](C)C[C@H](N(C)C(=O)Nc3ccccc3Cl)[C@H]2O)[C@](C)(O)C[C@@H](C)CN[C@H](C)[C@@H](O)[C@]1(C)O", "note": "[Example A-12, 3-(2-chlorophenyl)-1-((2S,3R,4S,6R)-2-(((2R,3S,4R,5R,8R,10R,11R,12S,13S,14R)-2-ethyl-3,4,10,13-tetrahydroxy-3,5,8,10,12,14-hexamethyl-15-oxo-1-oxa-6-azacyclopentadecan-11-yl)oxy)-3-hydroxy-6-methyltetrahydro-2H-pyran-4-yl)-1-methylurea]", "values": [{"measurement": "MIC", "result": "> 64", "unit": "µg/mL"}]}, {"smiles": "CC[C@H]1OC(=O)[C@H](C)[C@@H](O[C@H]2C[C@@](C)(OC)[C@](O)(CNCCC3CC3)[C@H](C)O2)[C@H](C)[C@@H](O[C@@H]2O[C@H](C)C[C@H](N(C)C(=O)N(C)c3ccccc3)[C@H]2O)[C@](C)(O)C[C@@H](C)CN[C@H](C)[C@@H](O)[C@]1(C)O", "note": "[Example H-34, 1-((2S,3R,4S,6R)-2-(((2R,3S,4R,5R,8R,10R,11R,12S,13S,14R)-13-(((2R,4R,5S,6S)-5-(((2-cyclopropylethyl)amino)methyl)-5-hydroxy-4-methoxy-4,6-dimethyltetrahydro-2H-pyran-2-yl)oxy)-2-ethyl-3,4,10-trihydroxy-3,5,8,10,12,14-hexamethyl-15-oxo-1-oxa-6-azacyclopentadecan-11-yl)oxy)-3-hydroxy-6-methyltetrahydro-2H-pyran-4-yl)-1,3-dimethyl-3-phenylurea]", "values": [{"measurement": "MIC", "result": "> 64", "unit": "µg/mL"}]}, {"smiles": "CC[C@H]1OC(=O)[C@H](C)[C@@H](O)[C@H](C)[C@@H](O[C@@H]2O[C@H](C)C[C@H](N(C)C(=O)Nc3cccc(OC)c3)[C@H]2O)[C@](C)(O)C[C@@H](C)CN[C@H](C)[C@@H](O)[C@]1(C)O", "note": "[Example A-21, 1-((2S,3R,4S,6R)-2-(((2R,3S,4R,5R,8R,10R,11R,12S,13S,14R)-2-ethyl-3,4,10,13-tetrahydroxy-3,5,8,10,12,14-hexamethyl-15-oxo-1-oxa-6-azacyclopentadecan-11-yl)oxy)-3-hydroxy-6-methyltetrahydro-2H-pyran-4-yl)-3-(3-methoxyphenyl)-1-methylurea]", "values": [{"measurement": "MIC", "result": "> 64", "unit": "µg/mL"}]}, {"smiles": "CCCNC[C@]1(O)[C@H](C)O[C@@H](O[C@H]2[C@H](C)[C@@H](O[C@@H]3O[C@H](C)C[C@H](N(C)C(=O)N(c4ccccc4)C4CCOCC4)[C@H]3O)[C@](C)(O)C[C@@H](C)CN[C@H](C)[C@@H](O)[C@](C)(O)[C@@H](CC)OC(=O)[C@@H]2C)C[C@@]1(C)OC", "note": "[Example H-55, 1-((2S,3R,4S,6R)-2-(((2R,3S,4R,5R,8R,10R,11R,12S,13S,14R)-2-ethyl-3,4,10-trihydroxy-13-(((2R,4R,5S,6S)-5-hydroxy-4-methoxy-4,6-dimethyl-5-((propylamino)methyl)tetrahydro-2H-pyran-2-yl)oxy)-3,5,8,10,12,14-hexamethyl-15-oxo-1-oxa-6-azacyclopentadecan-11-yl)oxy)-3-hydroxy-6-methyltetrahydro-2H-pyran-4-yl)-1-methyl-3-phenyl-3-(tetrahydro-2H-pyran-4-yl)urea]", "values": [{"measurement": "MIC", "result": "> 64", "unit": "µg/mL"}]}, {"smiles": "CC[C@H]1OC(=O)[C@H](C)[C@@H](O)[C@H](C)[C@@H](O[C@@H]2O[C@H](C)C[C@H](N(C)C(=O)Nc3ccccc3C)[C@H]2O)[C@](C)(O)C[C@@H](C)CN[C@H](C)[C@@H](O)[C@]1(C)O", "note": "[Example A-14, 1-((2S,3R,4S,6R)-2-(((2R,3S,4R,5R,8R,10R,11R,12S,13S,14R)-2-ethyl-3,4,10,13-tetrahydroxy-3,5,8,10,12,14-hexamethyl-15-oxo-1-oxa-6-azacyclopentadecan-11-yl)oxy)-3-hydroxy-6-methyltetrahydro-2H-pyran-4-yl)-1-methyl-3-(o-tolyl)urea]", "values": [{"measurement": "MIC", "result": "> 64", "unit": "µg/mL"}]}, {"smiles": "CCCNC[C@]1(O)[C@H](C)O[C@@H](O[C@H]2[C@H](C)[C@@H](O[C@@H]3O[C@H](C)C[C@H](N(C)C(=O)N(C)c4ccccc4)[C@H]3O)[C@](C)(O)C[C@@H](C)CN(C)[C@H](C)[C@@H](O)[C@](C)(O)[C@@H](CC)OC(=O)[C@@H]2C)C[C@@]1(C)OC", "note": "[Example H-101, 1-((2S,3R,4S,6R)-2-(((2R,3S,4R,5R,8R,10R,11R,12S,13S,14R)-2-ethyl-3,4,10-trihydroxy-13-(((2R,4R,5S,6S)-5-hydroxy-4-methoxy-4,6-dimethyl-5-((propylamino)methyl)tetrahydro-2H-pyran-2-yl)oxy)-3,5,6,8,10,12,14-heptamethyl-15-oxo-1-oxa-6-azacyclopentadecan-11-yl)oxy)-3-hydroxy-6-methyltetrahydro-2H-pyran-4-yl)-1,3-dimethyl-3-phenylurea]", "values": [{"measurement": "MIC", "result": "> 64", "unit": "µg/mL"}]}, {"smiles": "CC[C@H]1OC(=O)[C@H](C)[C@@H](O[C@H]2C[C@@](C)(OC)[C@@H](O)[C@H](C)O2)[C@H](C)[C@@H](O[C@@H]2O[C@H](C)C[C@H](N(C)C(=O)NC(C)(C)C)[C@H]2O)[C@](C)(O)C[C@@H](C)CN(C)[C@H](C)[C@@H](O)[C@]1(C)O", "note": "[Example B-11, 3-(tert-butyl)-1-((2S,3R,4S,6R)-2-(((2R,3S,4R,5R,8R,10R,11R,12S,13S,14R)-2-ethyl-3,4,10-trihydroxy-13-(((2R,4R,5S,6S)-5-hydroxy-4-methoxy-4,6-dimethyltetrahydro-2H-pyran-2-yl)oxy)-3,5,6,8,10,12,14-heptamethyl-15-oxo-1-oxa-6-azacyclopentadecan-11-yl)oxy)-3-hydroxy-6-methyltetrahydro-2H-pyran-4-yl)-1-methylurea]", "values": [{"measurement": "MIC", "result": "> 64", "unit": "µg/mL"}]}, {"smiles": "CC[C@H]1OC(=O)[C@H](C)[C@@H](O)[C@H](C)[C@@H](O[C@@H]2O[C@H](C)C[C@H](N(C)C(=O)Nc3ccccc3F)[C@H]2O)[C@](C)(O)C[C@@H](C)CN[C@H](C)[C@@H](O)[C@]1(C)O", "note": "[Example A-17, 1-((2S,3R,4S,6R)-2-(((2R,3S,4R,5R,8R,10R,11R,12S,13S,14R)-2-ethyl-3,4,10,13-tetrahydroxy-3,5,8,10,12,14-hexamethyl-15-oxo-1-oxa-6-azacyclopentadecan-11-yl)oxy)-3-hydroxy-6-methyltetrahydro-2H-pyran-4-yl)-3-(2-fluorophenyl)-1-methylurea]", "values": [{"measurement": "MIC", "result": "> 64", "unit": "µg/mL"}]}]}
